PubChem BioAssay (NCI)
Values joined by “and” are separate entries in the source; they are usually repeats but may differ in a detail not shown here. Identical values can stand only once.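 Values below derive from 48-hour exposures of cells grown in 96-well plates, with endpoints linearly interpolated between the two concentrations bracketing the appropriate inhibition level. GI50 = concentration required for 50% inhibition of growth. Definition used: TGI = concentration required for complete inhibition of growth.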

Columns and labels:
Experiment in all cases: DTP human tumour cell line panel, 48 h
DU-145 prostate = tested on: DU-145 prostate
HS 578T breast = tested on: HS 578T breast
HT29 colon = tested on: HT29 colon
MDA-MB-435 = tested on: MDA-MB-435
OVCAR-3 ovarian = tested on: OVCAR-3 ovarian
PC-3 prostate = tested on: PC-3 prostate
RXF 393 renal = tested on: RXF 393 renal
SF-268 CNS = tested on: SF-268 CNS
SR leukemia = tested on: SR leukemia
SW-620 colon = tested on: SW-620 colon

Row | SMILES | GI50 (DU-145 prostate) | TGI (DU-145 prostate) | GI50 (HS 578T breast) | TGI (HS 578T breast) | GI50 (HT29 colon) | GI50 (MDA-MB-435) | TGI (MDA-MB-435) | GI50 (OVCAR-3 ovarian) | TGI (OVCAR-3 ovarian) | GI50 (PC-3 prostate) | TGI (PC-3 prostate) | GI50 (RXF 393 renal) | TGI (RXF 393 renal) | GI50 (SF-268 CNS) | TGI (SF-268 CNS) | GI50 (SR leukemia) | TGI (SR leukemia) | GI50 (SW-620 colon) | TGI (SW-620 colon) | TGI (HT29 colon)
1 | O=S(=O)(Nc1ccc(Cl)c(C(F)(F)F)c1)c1ccc(-c2cnc(C3CC3)o2)cc1 | 1280 nM | 10600 nM | 334 nM | 3480 nM | 157 nM | 65.8 nM | 606 nM | 39.3 nM | 1900 nM | 713 nM | 6590 nM | 381 nM | 1660 nM | 1240 nM | 10800 nM | 82.2 nM | > 23000 nM | 175 nM | > 35500 nM | –
2 | O=[N+]([O-])c1ccc(N(CCO)CCO)c2c1no[n+]2[O-] | 1680 nM | 5640 nM | 705 nM | 4290 nM | 1840 nM | 1510 nM | 4870 nM | 1510 nM | 3910 nM | 1570 nM | 15900 nM | 1320 nM | 4840 nM | 1240 nM | 5020 nM | 215 nM | 899 nM | 1320 nM | 3710 nM | 10700 nM
3 | CCN(C)S(=O)(=O)Nc1cccc(Nc2ncnc3cc(NC(=O)CCl)ccc23)c1Cl | 3690 nM | 8860 nM | 3550 nM | 18600 nM | 1330 nM | 1920 nM | 6440 nM | 3760 nM | 7800 nM | 2970 nM | 8320 nM | 3570 nM | 7420 nM | 2840 nM | 7720 nM | 824 nM | 7760 nM | 1070 nM | 4520 nM | 4830 nM
4 | COC(=O)c1c2c(c(C)[n+]([O-])c1C)C(=O)C(NCc1ccc(F)c(Cl)c1)=CC2=O | 2440 nM | 7890 nM | 3220 nM | 21500 nM | 1350 nM | 1470 nM | 2870 nM | 306 nM | 1240 nM | 2270 nM | 12900 nM | 1730 nM | 4050 nM | 2640 nM | 13200 nM | 2500 nM | > 100000 nM | 2210 nM | 7120 nM | > 100000 nM
5 | N#Cc1ccc(-n2cnc(NC(=O)[C@H]3CCN(C#N)C3)c2)cc1 | 1520 nM | 49400 nM | 1900 nM | 13600 nM | 1290 nM | 234 nM | 18400 nM | – | 4840 nM | 2390 nM | 20200 nM | 374 nM | 2600 nM | 2830 nM | 25500 nM | 375 nM | > 100000 nM | 1460 nM | 26400 nM | 7300 nM
6 | N#Cc1cccc(Nc2nccc(-c3cnn4ncccc34)n2)c1 | 6.61 nM | 3460 nM | 4.82 nM | 21 nM | 5.72 nM | 6.28 nM | 23.9 nM | 5.41 nM | 15 nM | 7.45 nM | > 25000 nM | 2.69 nM | 7.91 nM | 4.98 nM | 300 nM | 2.5 nM | – | 6.02 nM | > 25000 nM | 34 nM
7 | Cc1cc(N2CCN(C)CC2)nc(NC2CCCC(Nc3ccnc4cc(Cl)ccc34)C2)n1 (configuration not stated) | 3050 nM | 12700 nM | 2170 nM | 6410 nM | 2140 nM | 1800 nM | 3370 nM | 2250 nM | 5750 nM | 3350 nM | 11400 nM | 1420 nM | 3170 nM | 1970 nM | 6350 nM | 643 nM | 5230 nM | 2480 nM | 10800 nM | 6160 nM
8 | CC/C(=C(\c1ccc(O)cc1)c1ccc(OCCNC)cc1)c1ccccc1 | 2150 nM and 1710 nM and 2330 nM | 4360 nM and 3460 nM and 5250 nM | 356 nM and 1340 nM and 1780 nM | 3420 nM and 3320 nM and 5180 nM | 1710 nM and 1550 nM | 1510 nM and 1570 nM and 1580 nM | 3040 nM and 3070 nM and 3020 nM | 2090 nM and 1720 nM and 1970 nM | 4110 nM and 3160 nM and 3900 nM | 1840 nM and 1770 nM and 2250 nM | 5920 nM and 4850 nM and 5530 nM | 1500 nM and 1630 nM and 1370 nM | 3680 nM and 3300 nM and 2800 nM | 2250 nM and 1740 nM and 2060 nM | 5240 nM and 3760 nM and 4740 nM | 2420 nM and 1630 nM and 2220 nM | 5850 nM and 4110 nM and 5540 nM | 1690 nM and 1750 nM and 1850 nM | 3110 nM and 3260 nM and 3740 nM | 3390 nM and 2920 nM and 3460 nM
9 | C=C1CC2(OC1=O)c1ccccc1CCc1ccccc12 | – | 32700 nM | – | 5030 nM | – | – | 6150 nM | – | 3740 nM | – | 27400 nM | – | 3070 nM | – | 4540 nM | – | 2300 nM | – | 3020 nM | 3600 nM
10 | C=CC(=O)Nc1cc2c(Nc3ccc(OCc4ccccn4)c(Cl)c3)ncnc2cc1OCCN1CCOCC1 | 502 nM | > 100000 nM | 2010 nM | > 100000 nM | 4040 nM | 5940 nM | > 86500 nM | 1160 nM | 29300 nM | 4280 nM | > 100000 nM | 784 nM | 3800 nM | 2870 nM | > 65900 nM | 2620 nM | > 100000 nM | 2990 nM | 20700 nM | > 100000 nM
11 | C#C[C@]1(O)CC[C@H]2[C@@H]3CC=C4c5nc(Nc6ccc(OC)cc6OC)sc5CC[C@]4(C)[C@H]3CC[C@@]21C | 2320 nM | 10800 nM | 411 nM | 2360 nM | 1290 nM | 1760 nM | 4390 nM | 1580 nM | 3740 nM | 845 nM | 9020 nM | 262 nM | 608 nM | 1750 nM | 6650 nM | 523 nM | 11200 nM | 1550 nM | 3710 nM | 6400 nM
12 | NC(=O)c1c(OCc2c(F)cc(Br)cc2F)nsc1NC(=O)NCCCCN1CCCC1 | 4590 nM | > 10000 nM | 157 nM | 971 nM | 1460 nM | 2260 nM | 6750 nM | 1810 nM | 4520 nM | 3140 nM | > 10000 nM | 362 nM | 1710 nM | 1780 nM | > 10000 nM | 1740 nM | 4370 nM | 3030 nM | > 10000 nM | 6770 nM
